Assay [1] has as its target T1, human TYK2 (Homo sapiens, UniProt P29597).
T1 construct: catalytic domain (amino acids 871-1187; catalog number 08-147); purchased Carna Biosciences 08-147
T1 sequence (P29597 871-1187): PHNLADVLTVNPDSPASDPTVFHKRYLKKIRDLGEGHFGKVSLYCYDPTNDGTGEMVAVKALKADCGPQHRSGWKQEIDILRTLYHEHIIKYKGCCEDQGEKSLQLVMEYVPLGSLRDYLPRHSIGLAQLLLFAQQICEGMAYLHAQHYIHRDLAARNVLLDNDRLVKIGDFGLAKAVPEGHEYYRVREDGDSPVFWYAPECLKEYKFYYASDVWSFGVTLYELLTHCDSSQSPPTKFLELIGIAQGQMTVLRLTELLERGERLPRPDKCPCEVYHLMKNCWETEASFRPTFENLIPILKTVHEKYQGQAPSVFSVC
As to the kind of experiment: TYK2 inhibition assay. Type of assay: biochemical. The note with it: recombinant human TYK2 catalytic domain, polyGT substrate. Summed up:
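Radiometric kinase reaction run 90 min at 30 °C, stopped with phosphoric acid, washed and scintillation-counted.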

Assay [2] concerns the target T2, human JAK2 (Homo sapiens, UniProt O60674).
T2 construct: catalytic domain (amino acids 808-1132; catalog number PV4210); GST; purchased Invitrogen PV4210
Put plainly: JAK2 inhibition assay (polyGT substrate / Ulight-JAK1 peptide). In kind it is biochemical. The note with it: recombinant human JAK2 catalytic domain; polyGT or Ulight-JAK1 peptide assay. In a few lines:
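Radiometric: 0.025 mU JAK2 with 2.5 μg polyGT, 1 μM ATP plus ^33P-ATP in MOPS pH 7.5 buffer, 1% DMSO, 90 min at 30° C.; filter counting. Alternative TR-FRET format with Ulight-JAK1 peptide, 60 min at room temperature, Eu-anti-phosphotyrosine detection.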

Assay [3] deals with CTLL-2 cell line. As to the kind of experiment: CTLL2 viability assay. The note with it: Mus musculus, IL-2 dependent CTLL2 viability, 24 h, ATP-lite. Type of assay: cell-based. An excerpt: The protocol describes the methods to analyse the activity of compounds on their ability to sustain the IL2-dependent viability of CTLL2.
Final DMSO concentration was 0.1%.

For assay [4], the system named is BA/F3 cell line. As to the kind of experiment: BA/F3 viability assay. As to conditions: Mus musculus, BaF3, 48 h, read-out: BA/F3 IC50.
Assay [5] addresses T3, human JAK3 (Homo sapiens, UniProt P52333).
T3 construct: catalytic domain (amino acids 781-1124; catalog number PV3855); purchased Invitrogen PV3855
Put plainly: JAK3 inhibition assay. As to conditions: recombinant human JAK3 catalytic domain; polyGT substrate. Type of assay: biochemical. In a few lines:
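Radiometric kinase assay: 0.5 ng JAK3 with 2.5 μg polyGT in Tris pH 7.5/MgCl2 buffer, 1 μM ATP plus 0.25 μCi 33P-γ-ATP, 1% DMSO, 45 min at 30 °C, stopped with phosphoric acid.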

In assay [6] the target is T4, human JAK1 (Homo sapiens, UniProt P23458).
T4 construct: catalytic domain, amino acids 866-1154; catalog number PV4774; purchased Invitrogen PV4774
T4 sequence (P23458 866-1154): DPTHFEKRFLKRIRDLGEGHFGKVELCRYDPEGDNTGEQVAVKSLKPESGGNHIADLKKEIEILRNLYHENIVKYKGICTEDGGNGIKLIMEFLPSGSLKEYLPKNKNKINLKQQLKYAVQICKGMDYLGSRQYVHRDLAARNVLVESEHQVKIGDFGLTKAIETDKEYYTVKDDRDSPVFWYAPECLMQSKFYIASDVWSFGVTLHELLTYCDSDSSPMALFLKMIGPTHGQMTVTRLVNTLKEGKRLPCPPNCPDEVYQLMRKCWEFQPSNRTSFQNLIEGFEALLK
As to the kind of experiment: JAK1 inhibition assay (polyGT substrate / Ulight-JAK1 peptide). Type of assay: biochemical. The note with it: recombinant human JAK1 catalytic domain; polyGT or Ulight-JAK1 peptide assay. Summed up: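 Two formats. PolyGT radiometric: 45 min at 30 °C, stopped with phosphoric acid, counted as cpm. Ulight-JAK1 peptide: 60 min at room temperature, stopped with Eu-anti-phosphotyrosine/EDTA, read as RFU. Percent inhibition normalised to vehicle and 10 μM staurosporine.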

SMILES strings stand for the structures.

T2 sequence (O60674 808-1132): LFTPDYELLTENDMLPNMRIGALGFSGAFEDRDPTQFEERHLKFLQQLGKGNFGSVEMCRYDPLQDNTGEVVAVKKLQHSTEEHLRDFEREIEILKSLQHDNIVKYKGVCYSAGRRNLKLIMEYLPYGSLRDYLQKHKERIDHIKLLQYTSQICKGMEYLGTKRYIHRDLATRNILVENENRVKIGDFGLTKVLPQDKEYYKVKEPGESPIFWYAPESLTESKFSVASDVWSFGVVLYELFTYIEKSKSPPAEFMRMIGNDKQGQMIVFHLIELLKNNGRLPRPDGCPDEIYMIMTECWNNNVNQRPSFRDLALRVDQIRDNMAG
T3 sequence (P52333 781-1124): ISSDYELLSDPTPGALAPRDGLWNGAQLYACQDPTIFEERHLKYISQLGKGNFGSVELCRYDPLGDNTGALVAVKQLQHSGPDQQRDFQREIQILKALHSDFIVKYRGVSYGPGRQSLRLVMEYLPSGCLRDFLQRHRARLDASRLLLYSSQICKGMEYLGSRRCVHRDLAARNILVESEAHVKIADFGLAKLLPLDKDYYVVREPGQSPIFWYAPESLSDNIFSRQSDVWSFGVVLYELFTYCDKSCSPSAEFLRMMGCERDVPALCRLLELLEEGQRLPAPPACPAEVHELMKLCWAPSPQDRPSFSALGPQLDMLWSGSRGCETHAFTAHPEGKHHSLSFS

With `CCc1cc(C2(CCNS(C)(=O)=O)COC2)ccc1N(C)c1cc2c(cn1)ncn2C` [Compound 392, N-[2-(3-{3-Ethyl-4-[methyl-(1-methyl-1H-imidazo[4,5-c]pyridin-6-yl)-amino]-phenyl}-oxetan-3-yl)-ethyl]-methanesulfonamide], the IC50 is 0.01 to 100 nM in assay [1]; 0.01 to 100 nM in assay [2]; > 1000 nM in assay [3]; > 5000 nM in assay [4]; 101 to 500 nM in assay [5]; 0.01 to 100 nM in assay [6].
In the case of `CCc1cc(CNS(=O)(=O)N(C)C)ccc1N(C)c1cc2c(cn1)ncn2C` [Compound 375, Dimethyl amino-N-{3-Ethyl-4-[methyl-(1-methyl-1H-imidazo[4,5-c]pyridin-6-yl)-amino]-benzyl}-sulfonamide], the IC50 was 101 to 500 nM in assay [1]; 0.01 to 100 nM in assay [2]; > 1000 nM in assay [3]; 1000 to 5000 nM in assay [4]; 101 to 500 nM in assay [5]; 0.01 to 100 nM in assay [6].
For the compound `CN(c1cc2c(cn1)ncn2C)c1ccc(C2CN(C(=O)OC(C)(C)C)C2)cc1OC(F)F` [Compound 362, 3-{3-Difluoromethoxy-4-[methyl-(1-methyl-1H-imidazo[4,5-]pyridin-6-yl)-amino]-phenyl}-azetidine-1-carboxylic acid tert-butyl ester], the IC50 in assay [1] was > 1000 nM; in assay [2], > 1000 nM; in assay [3], > 1000 nM; in assay [4] it was > 5000 nM; in assay [5], > 1000 nM; in assay [6], 501 to 1000 nM.
Take `CCc1cc(C(C#N)N2CCC2)ccc1N(C)c1cc2c(cn1)ncn2C` (stereo not drawn) [Compound 394]: the IC50 in assay [1] was 0.01 to 100 nM; in assay [2], 0.01 to 100 nM; in assay [3], > 1000 nM; in assay [4], 1000 to 5000 nM; in assay [5], 101 to 500 nM; in assay [6] it was 0.01 to 100 nM.
Regarding `CCc1cc(CNCC(F)(F)F)ccc1N(C)c1cc2c(cn1)ncn2C` [Compound 380], the IC50 in assay [1] is 101 to 500 nM; in assay [2], 0.01 to 100 nM; in assay [3], > 1000 nM; in assay [4], 1000 to 5000 nM; in assay [5] it was 101 to 500 nM; in assay [6] it was 0.01 to 100 nM.
`CCc1cc(C(CC#N)NS(C)(=O)=O)ccc1N(C)c1cc2c(cn1)ncn2C` (stereo not drawn) [Compound 387, N-(2-Cyano-1-{3-ethyl-4-[methyl-(1-methyl-1H-imidazo[4,5-c]pyridin-6-yl)-amino]-phenyl}-ethyl)-methanesulfonamide]: the IC50 was 101 to 500 nM in assay [1]; 101 to 500 nM in assay [2]; > 1000 nM in assay [3]; > 5000 nM in assay [4]; 101 to 500 nM in assay [5]; 0.01 to 100 nM in assay [6].
In the case of `CCc1cc(CN2CC(C#N)C2)ccc1N(C)c1cc2c(cn1)ncn2C` [Compound 381, 1-{3-Ethyl-4-[methyl-(1-methyl-1H-imidazo[4,5-c]pyridin-6-yl)-amino]-enzyl}-azetidine-3-carbonitrile], the IC50 in assay [1] is 501 to 1000 nM; in assay [2] it was 101 to 500 nM; in assay [3], > 1000 nM; in assay [4] it was > 5000 nM; in assay [5], > 1000 nM; in assay [6], 0.01 to 100 nM.
For `CCn1nc(-c2ccc(Cl)cc2)cc1N(C)c1cc2c(cn1)ncn2C` [Compound 307, [5-(4-Chloro-phenyl)-2-ethyl-2H-pyrazol-3-yl]-methyl-(1-methyl-1H-imidazo[4,5-c]pyridin-6-yl)-amine], the IC50 in assay [1] is 101 to 500 nM; in assay [2], 101 to 500 nM; in assay [3] it was > 1000 nM; in assay [4], > 5000 nM; in assay [5] it was 101 to 500 nM; in assay [6], 0.01 to 100 nM.
As to `CCc1cc(CN(CC#N)S(C)(=O)=O)ncc1N(C)c1cc2c(cn1)ncn2C` [Compound 344, N-Cyanomethyl-N-{4-ethyl-5-[methyl-(1-methyl-1H-imidazo[4,5-c]pyridin-6-yl)-amino]-pyridin-2-ylmethyl}-methanesulfonamide], the IC50 in assay [1] is 101 to 500 nM; in assay [2], 101 to 500 nM; in assay [3], > 1000 nM; in assay [4], > 5000 nM; in assay [5], 0.01 to 100 nM; in assay [6], 0.01 to 100 nM.
Consider `CCc1cc(C2(CCNS(=O)(=O)C(F)F)COC2)ccc1N(C)c1cc2c(cn1)ncn2C` [Compound 397, N-[2-(3-{3-Ethyl-4-[methyl-(1-methyl-1H-imidazo[4,5-c]pyridin-6-yl)-amino]-phenyl}-oxetan-3-yl)-ethyl]-C,C-difluoro-methanesulfonamide], for which the IC50 in assay [1] is 0.01 to 100 nM; in assay [2], 0.01 to 100 nM; in assay [3] it was > 1000 nM; in assay [4], 1000 to 5000 nM; in assay [5], 0.01 to 100 nM; in assay [6] it was 0.01 to 100 nM.
As to `CCc1cc(CC#N)ccc1N(C)c1cc2c(cn1)ncn2C` [Compound 406, {3-Ethyl-4-[methyl-(1-methyl-1H-imidazo[4,5-c]pyridin-6-yl)-amino]-phenyl}-acetonitrile], the IC50 in assay [1] fell in the range of 0.01 to 100 nM; in assay [2], 0.01 to 100 nM; in assay [3] it was 501 to 1000 nM; in assay [4] it was 1000 to 5000 nM; in assay [5], 0.01 to 100 nM; in assay [6] it was 0.01 to 100 nM.
`CCc1cc(C(C#N)N2CC(C#N)C2)ccc1N(C)c1cc2c(cn1)ncn2C` (stereo not drawn) [Compound 391, 1-(Cyano-{3-ethyl-4-[methyl-(1-methyl-1H-imidazo[4,5-c]pyridin-6-yl)-amino]-phenyl}-methyl)-azetidine-3-carbonitrile]: the IC50 is 0.01 to 100 nM in assay [1]; 0.01 to 100 nM in assay [2]; > 1000 nM in assay [3]; 1000 to 5000 nM in assay [4]; 101 to 500 nM in assay [5]; 0.01 to 100 nM in assay [6].
Turning to `CCc1cc(C2CN(C(=O)COC)C2)ccc1N(C)c1cc2c(cn1)ncn2C` [Compound 350, 1-(3-{3-Ethyl-4-[methyl-(1-methyl-1H-imidazo[4,5-c]pyridin-6-yl)-amino]-phenyl}-azetidin-1-yl)-2-methoxy-ethanone], the IC50 is 101 to 500 nM in assay [1]; 101 to 500 nM in assay [2]; > 1000 nM in assay [3]; > 5000 nM in assay [4]; > 1000 nM in assay [5]; 0.01 to 100 nM in assay [6].
`CCc1cc(CN(CC#N)S(C)(=O)=O)cc(F)c1N(C)c1cc2c(cn1)ncn2C` [Compound 357, N-Cyanomethyl-N-{3-ethyl-5-fluoro-4-[methyl-(1-methyl-1H-imidazo[4,5-c]pyridin-6-yl)-amino]-benzyl}-methanesulfonamide]: the IC50 in assay [1] is 0.01 to 100 nM; in assay [2] it was 0.01 to 100 nM; in assay [3], > 1000 nM; in assay [4] it was 1000 to 5000 nM; in assay [5], 0.01 to 100 nM; in assay [6] it was 0.01 to 100 nM.
With `CCc1cc(C2CN(C(=O)C3CCOCC3)C2)ncc1N(C)c1cc2c(cn1)ncn2C` [Compound 337, (3-{4-Ethyl-5-[methyl-(1-methyl-1H-imidazo[4,5-c]pyridin-6-yl)-amino]-pyridin-2-yl}-azetidin-1-yl)-(tetrahydro-pyran-4-yl)-methanone], the IC50 in assay [1] was > 1000 nM; in assay [2] it was > 1000 nM; in assay [3], > 1000 nM; in assay [4] it was > 5000 nM; in assay [5], > 1000 nM; in assay [6], 501 to 1000 nM.

The values above are taken from US20130217664A1, “NOVEL COMPOUNDS USEFUL FOR THE TREATMENT OF DEGENERATIVE AND INFLAMMATORY DISEASES” (priority 2012, published 2013).
